As a reminder, the fold induction is the signal under treatment as a multiple of the control signal.

Our source for the fold induction and Ratio values is patent US7563813B2, “Iminothiazolidinone derivatives as SFRP-1 antagonists” (Wyeth, priority 2005, dated 2009).

The target of this assay is T1, hSFRP-1 (Homo sapiens, UniProt Q8N474).
T1 construct: expressed in transfected cells; host or cells: U2OS osteosarcoma cells (ATCC, HTB 96), transient co-transfection with Wnt 3, Wnt3A or Wnt 1, 16x TCF-tk-Luciferase reporter and CMV-beta-gal
T1 sequence (Q8N474 32-314): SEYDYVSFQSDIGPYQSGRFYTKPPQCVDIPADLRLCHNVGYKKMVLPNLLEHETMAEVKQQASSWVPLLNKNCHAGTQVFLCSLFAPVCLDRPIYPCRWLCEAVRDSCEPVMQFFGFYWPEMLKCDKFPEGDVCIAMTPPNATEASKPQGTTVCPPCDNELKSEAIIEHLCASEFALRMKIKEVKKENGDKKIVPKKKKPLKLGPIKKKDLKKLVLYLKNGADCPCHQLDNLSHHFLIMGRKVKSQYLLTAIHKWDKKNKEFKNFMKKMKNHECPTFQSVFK
The assay can be described thus: Cell-Based Assay for In Vitro Measurement of SFRP-1/SARP2 Antagonist Activity (U2OS cells, 16x TCF-tk-Luciferase reporter, Wnt + hSFRP-1 co-transfection). Conditions: initial single dose screening at 10 μM; for fold induction at 10 µM: luciferase reporter activity, fold induction over SFRP-1 control; for Ratio: ratio not defined. Here is the method:
Cell-Based Assay for In Vitro Measurement of SFRP-1/SARP2 Antagonist Activity
The following cell-based assay can be used to identify inhibitors of SFRP-1.
The osteosarcoma cell line, U2OS (ATCC, HTB 96), was passaged twice a week with growth medium (McCoy's SA medium containing 10% (v/v) fetal calf serum, 2 mM GlutaMAX-1, and 1% (v/v) Penicillin-Streptomycin). The cells were maintained in vented flasks at 37° C. inside a 5% CO2/95% humidified air incubator. One day prior to transfection, the cells were plated with growth medium at 25,000 cells/well into 96-well plates and incubated at 37° C. overnight.
The growth medium was removed, and the cells were washed once with OPTIMEM I (Gibco-BRL) medium (100 μl/well) to remove the serum and antibiotics. The wash medium was removed, and the cells were re-fed with OPTI-MEM I medium (100 μl/well). For each well of cells to be transfected, the following DNA's were diluted together in 25 μl OPTI-MEM I medium: 0.1 μg 16× TCF-tk-Luciferase reporter, 0.02 μg Wnt 3, Wnt3A, Wnt 1 or empty vector (Upstate Biotechnology), 0.075 μg hSFRP-1 or empty vector (pcDNA3.1, Invitrogen), and 0.025 μg CMV-®gal (Clonetech). For each well of cells to be transfected, 1 μl of Lipofectamine 2000 reagent (Invitrogen) was diluted in 25 μl OPTI-MEM I medium and incubated at room temperature for 5 minutes. The diluted DNA's were then combined with the diluted Lipofectamine 2000 (LF2000), and the mixture was incubated at room temperature for 20 minutes. Fifty μl of the DNA-LF 2000 mixture was added to each well, and the plate(s) were incubated at 37° C. in a 5% CO2/95% humidified air incubator for 4 hours. The cells were washed once with 150 μl/well of experimental medium (phenol red-free RPMI Medium 1640 containing 2% fetal bovine serum, 2 mM GlutaMAX-1, and 1% Penicillin-Streptomycin). Finally, the cells were treated overnight at 37° C. with 200 μl/well of experimental medium containing either vehicle (typically DMSO) or diluted compound in replicates of 8 wells/compound.
Initial single dose screening of test compounds was done at 10 μM.
Dose-response experiments were initially performed with the compounds in log increases from 1-10,000 nM. From these dose-response curves, EC50 values were generated.
After treatment, the cells were washed twice with 150 μl/well of PBS without calcium or magnesium and were lysed with 50 μl/well of 1× cell culture lysis reagent (Promega Corporation) on a shaker at room temperature for 30 minutes. Thirty μl aliquots of the cell lysates were transferred to 96-well luminometer plates, and luciferase activity was measured in a MicroLumat PLUS luminometer (EG&G Berthold), or a Victor (PerkinElmer Life Sciences) using […] of luciferase substrate (Promega Corporation). Following the injection of substrate, luciferase activity was measured for 10 seconds after a 1.6 second delay. Similarly, 10 μl aliquots of the cell lysates were transferred to separate 96-well luminometer plates, and 50 μl of Galacton chemiluminescent substrate (Tropix) was added to each well. The plates were covered and incubated on a rotary shaker at room temperature for one hour. ®gal activity was measured in a MicroLumat PLUS luminometer or Victor using 100 μl/well of Light Emission Accelerator (Tropix). Following the injection of the accelerator, ®gal activity was measured for 10 seconds after a 1.6 second delay. The luciferase and ®gal activity data were transferred from the luminometer to a PC and analyzed using the SAS/Excel program. After the luciferase activity was normalized to ®gal, the SAS/Excel program was used to determine the mean and standard deviation of each treatment, to analyze the data for statistical significance, and to determine EC50 values.
As an alternative to co-transfection in a 96 well plate, the U2OS cells were transfected in T225 flasks and the transfected cells were frozen. The frozen cells were thawed and plated on a 96 well plate and the assay was carried out as detailed above. […]
For orientation: A reporter such as luciferase makes a cellular process visible.

Turning to `COC(=O)c1cc(Cl)ccc1NC(=O)CC1SC(=N)NC1=O` (stereo not drawn) [Example 52, methyl 5-chloro-2-{[(2-imino-4-oxo-1,3-thiazolidin-5-yl)acetyl]amino}benzoate], the fold induction at 10 µM worked out at 1.1 and the Ratio worked out at 1.1.

As for `COC(=O)c1cc(OC)c(OC)cc1NC(=O)CC1SC(=N)NC1=O` (stereo not drawn) [Example 53, methyl 2-{[(2-imino-4-oxo-1,3-thiazolidin-5-yl)acetyl]amino}-4,5-dimethoxybenzoate], the fold induction at 10 µM is 1 and the Ratio is reported as 1.0.

Turning to `CCOC(=O)c1c(NC(=O)CC2SC(=N)NC2=O)sc(Br)c1C` (stereo not drawn) [Example 54, Ethyl 5-bromo-2-{[(2-imino-4-oxo-1,3-thiazolidin-5-yl)acetyl]amino}-4-methylthiophene-3-carboxylate], the fold induction at 10 µM came out at 2.6 and the Ratio came out at 2.6.

Turning to `CC(C)(C)OC(=O)c1cc(-c2ccccc2)sc1NC(=O)CC1SC(=N)NC1=O` (stereo not drawn) [Example 55, tert-butyl 2-{[(2-imino-4-oxo-1,3-thiazolidin-5-yl)acetyl]amino}-5-phenylthiophene-3-carboxylate], the fold induction at 10 µM came out at 1.2 and the Ratio was determined as 0.9.

With `COC(=O)c1cc(-c2ccccc2)sc1NC(=O)CC1SC(=N)NC1=O` (stereo not drawn) [Example 56, methyl 2-{[(2-imino-4-oxo-1,3-thiazolidin-5-yl)acetyl]amino}-5-phenylthiophene-3-carboxylate], the fold induction at 10 µM came to 0.9 and the Ratio was 0.9.

As for `COC(=O)c1cc(-c2ccc(Cl)cc2)sc1NC(=O)CC1SC(=N)NC1=O` (stereo not drawn) [Example 57, methyl 5-(4-chlorophenyl)-2-{[(2-imino-4-oxo-1,3-thiazolidin-5-yl)acetyl]amino}thiophene-3-carboxylate], the fold induction at 10 µM stood at 0.9 and the Ratio was determined as 0.8.

Consider `CCOC(=O)c1c(NC(=O)CC2SC(=N)NC2=O)sc(-c2ccccc2)c1C` (stereo not drawn) [Example 58, ethyl 2-{[(2-imino-4-oxo-1,3-thiazolidin-5-yl)acetyl]amino}-4-methyl-5-phenylthiophene-3-carboxylate], for which the fold induction at 10 µM turned out to be 0.7 and the Ratio turned out to be 0.7.

For `CCOC(=O)c1c(NC(=O)CC2SC(=N)NC2=O)sc(Br)c1CBr` (stereo not drawn) [Example 59, Ethyl 5-bromo-4-(bromomethyl)-2-{[(2-imino-4-oxo-1,3-thiazolidin-5-yl)acetyl]amino}thiophene-3-carboxylate], the fold induction at 10 µM is 1.1 and the Ratio stood at 1.4.

In the case of `CCOC(=O)c1c(NC(=O)CC2SC(=N)NC2=O)sc(Br)c1CNc1ccccc1` (stereo not drawn) [Example 60, Ethyl 4-(anilinomethyl)-5-bromo-2-{[(2-imino-4-oxo-1,3-thiazolidin-5-yl)acetyl]amino}thiophene-3-carboxylate], the fold induction at 10 µM was determined as 2.7 and the Ratio is 2.4.

As for `CCOC(=O)c1c(NC(=O)CC2SC(=N)NC2=O)sc(Br)c1CN(C)c1ccc(Cl)cc1` (stereo not drawn) [Example 61, ethyl 5-bromo-4-{[(4-chlorophenyl)(methyl)amino]methyl}-2-{[(2-imino-4-oxo-1,3-thiazolidin-5-yl)acetyl]amino}thiophene-3-carboxylate], the fold induction at 10 µM was found to be 0.7 and the Ratio is recorded as 1.0.

As for `CCOC(=O)c1c(NC(=O)CC2SC(=N)NC2=O)sc(Br)c1CNc1ccc(F)cc1` (stereo not drawn) [Example 62, ethyl 5-bromo-4-{[(4-fluorophenyl)amino]methyl}-2-{[(2-imino-4-oxo-1,3-thiazolidin-5-yl)acetyl]amino}thiophene-3-carboxylate], the fold induction at 10 µM turned out to be 2 and the Ratio amounted to 2.2.

Consider `CCOC(=O)c1c(NC(=O)CC2SC(=N)NC2=O)sc(Br)c1CNC1CCCC1` (stereo not drawn) [Example 63, ethyl 5-bromo-4-[(cyclopentylamino)methyl]-2-{[(2-imino-4-oxo-1,3-thiazolidin-5-yl)acetyl]amino}thiophene-3-carboxylate], for which the fold induction at 10 µM was found to be 1.5 and the Ratio was determined as 1.1.
